# According to PubChem BioAssay AID588624 (NMMLSC, 2011):
# The source made the active and inactive calls.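 The calls were made as follows: active = half-maximal concentration at most 10 µM with response span of at least 30% and a trustworthy curve fit; inactive = the rest.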
# Biological target: Cell division control protein 42 homolog (Homo sapiens) (UniProt P60953)
# Assay: inhibitors of activated Cdc42 GTP binding, SAR follow-up, selectivity assay for Rab7 inhibitor project, biochemical, activated mutant, bead multiplex, flow cytometry, round 2 (AID 588624)
# Details: GST-Cdc42 act beads, Bodipy-GTP binding
# Chain of Cell division control protein 42 homolog (Homo sapiens) (P60953 whole entry, looked up): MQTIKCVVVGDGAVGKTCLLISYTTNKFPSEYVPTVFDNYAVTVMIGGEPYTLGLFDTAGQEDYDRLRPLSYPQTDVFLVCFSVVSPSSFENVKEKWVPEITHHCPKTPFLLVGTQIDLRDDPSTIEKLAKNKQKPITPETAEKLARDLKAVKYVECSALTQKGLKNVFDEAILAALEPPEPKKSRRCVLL
row,EC50 [nM],SMILES
1,1310,COc1cccc(C(=O)NC(=S)Nc2sc3c(c2C(=O)O)CC(C)(C)OC3)c1
2,29500,CC1(C)Cc2c(sc(NC(=S)NC(=O)c3ccccc3Br)c2C(=O)O)CO1
3,12500,O=C(NC(=S)Nc1sc2c(c1C(=O)O)CCOC2)c1ccccc1
4,326,CC1(C)Cc2c(sc(NC(=S)NC(=O)c3ccco3)c2C(=O)O)CO1
5,935,CC(C)(C)C1Cc2c(sc(NC(=S)NC(=O)c3ccccc3)c2C(=O)O)CO1 (centres undefined)
6,5830,CC1(C)Cc2c(sc(NC(=S)NC(=O)c3cccc(F)c3)c2C(=O)O)CO1
7,692,CC1(C)Cc2c(sc(NC(=S)NC(=O)c3ccc(F)cc3)c2C(=O)O)CO1
8,40600,CC1(C)Cc2c(sc(NC(=S)NC(=O)c3cccc(Br)c3)c2C(=O)O)CO1
9,32100,CC1(C)Cc2c(sc(NC(=S)NC(=O)c3ccc(Br)cc3)c2C(=O)O)CO1
10,1350,Cc1ccccc1C(=O)NC(=S)Nc1sc2c(c1C(=O)O)CC(C)(C)OC2
11,3130,CC1(C)Cc2c(sc(NC(=S)NC(=O)C3CCCCC3)c2C(=O)O)CO1
12,2090,CC1(C)Cc2c(sc(NC(=S)NC(=O)c3ccccc3F)c2C(=O)O)CO1
13,7980,CC1Cc2c(sc(NC(=S)NC(=O)c3ccccc3)c2C(=O)O)CO1 (centres undefined)
14,177,CCC1(C)Cc2c(sc(NC(=S)NC(=O)c3ccccc3)c2C(=O)O)CO1 (centres undefined)

# Same assay, conditions: GST-Cdc42 act beads, Bodipy-GTP binding, at 100 µM (top of the series)
row,percent response of GTP binding,SMILES
1,inactive,O=C(NC(=S)Nc1sc2c(c1C(=O)O)CCOC2)c1ccccc1
2,inactive,CC1(C)Cc2c(sc(NC(=S)Nc3ccccc3)c2C(=O)O)CO1
3,inactive,CC1(C)Cc2c(sc(NC(=S)NC(=O)c3cccs3)c2C(=O)O)CO1
4,inactive,O=C(NC(=S)Nc1sc2c(c1C(=O)O)CC1(CCCC1)OC2)c1ccccc1
5,inactive,CC1(C)Cc2c(sc(NC(=O)NC(=O)c3ccccc3)c2C(=O)O)CO1
6,inactive,Cc1ccc(C(=O)NC(=S)Nc2sc3c(c2C(=O)O)CC(C)(C)OC3)cc1
7,inactive,COc1ccccc1C(=O)NC(=S)Nc1sc2c(c1C(=O)O)CC(C)(C)OC2
8,inactive,CC1(C)CCc2sc(NC(=S)NC(=O)c3ccccc3)c(C(=O)O)c2C1
9,inactive,COc1ccc(C(=O)NC(=S)Nc2sc3c(c2C(=O)O)CC(C)(C)OC3)cc1
10,inactive,Cc1cccc(C(=O)NC(=S)Nc2sc3c(c2C(=O)O)CC(C)(C)OC3)c1
